Assay results as given in doi:10.1101/2020.05.21.108605v3 (biorxiv, 2020).

Legend:
Assay type in all cases: cell-based
KCNQ1/E1 (IKs) = KCNQ1/E1 (IKs) (Homo sapiens, UniProt P51787); test: perforated whole-cell patch clamp; conditions: AZM alone, external pH 7.4
Cav1.2/β2/α2/δ1 (ICa,L) = Cav1.2/β2/α2/δ1 (ICa,L) (Homo sapiens, UniProt Q13936); test: perforated whole-cell patch clamp; conditions: AZM alone, external pH 7.4
hERG (IKr) [1] = target: T1, hERG (IKr) (Homo sapiens, UniProt Q12809); test: whole-cell patch clamp
hNav1.5 (INa) = hNav1.5 (INa) (Homo sapiens, UniProt Q14524); test: whole-cell patch clamp; conditions: AZM alone, external pH 7.4
Kir2.1 (IK1) = target: T2, Kir2.1 (IK1) (Homo sapiens, UniProt P63252); test: whole-cell patch clamp, pulse current inhibition
T2 sequence (P63252 1-427): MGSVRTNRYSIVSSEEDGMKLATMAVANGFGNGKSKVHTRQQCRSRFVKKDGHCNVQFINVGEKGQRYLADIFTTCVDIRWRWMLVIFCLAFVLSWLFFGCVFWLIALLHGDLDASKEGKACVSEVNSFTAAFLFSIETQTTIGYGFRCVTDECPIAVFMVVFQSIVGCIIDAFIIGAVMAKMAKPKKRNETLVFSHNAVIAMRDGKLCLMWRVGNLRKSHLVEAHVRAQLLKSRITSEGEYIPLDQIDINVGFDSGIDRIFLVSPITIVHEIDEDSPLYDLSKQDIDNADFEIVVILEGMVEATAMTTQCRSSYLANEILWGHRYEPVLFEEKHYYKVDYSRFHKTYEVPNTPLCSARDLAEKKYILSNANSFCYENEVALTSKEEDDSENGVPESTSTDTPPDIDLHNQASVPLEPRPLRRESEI

hERG (IKr) [2] = target: T1, hERG (IKr); test: whole-cell patch clamp, tail current inhibition

T1 sequence (Q12809 whole entry): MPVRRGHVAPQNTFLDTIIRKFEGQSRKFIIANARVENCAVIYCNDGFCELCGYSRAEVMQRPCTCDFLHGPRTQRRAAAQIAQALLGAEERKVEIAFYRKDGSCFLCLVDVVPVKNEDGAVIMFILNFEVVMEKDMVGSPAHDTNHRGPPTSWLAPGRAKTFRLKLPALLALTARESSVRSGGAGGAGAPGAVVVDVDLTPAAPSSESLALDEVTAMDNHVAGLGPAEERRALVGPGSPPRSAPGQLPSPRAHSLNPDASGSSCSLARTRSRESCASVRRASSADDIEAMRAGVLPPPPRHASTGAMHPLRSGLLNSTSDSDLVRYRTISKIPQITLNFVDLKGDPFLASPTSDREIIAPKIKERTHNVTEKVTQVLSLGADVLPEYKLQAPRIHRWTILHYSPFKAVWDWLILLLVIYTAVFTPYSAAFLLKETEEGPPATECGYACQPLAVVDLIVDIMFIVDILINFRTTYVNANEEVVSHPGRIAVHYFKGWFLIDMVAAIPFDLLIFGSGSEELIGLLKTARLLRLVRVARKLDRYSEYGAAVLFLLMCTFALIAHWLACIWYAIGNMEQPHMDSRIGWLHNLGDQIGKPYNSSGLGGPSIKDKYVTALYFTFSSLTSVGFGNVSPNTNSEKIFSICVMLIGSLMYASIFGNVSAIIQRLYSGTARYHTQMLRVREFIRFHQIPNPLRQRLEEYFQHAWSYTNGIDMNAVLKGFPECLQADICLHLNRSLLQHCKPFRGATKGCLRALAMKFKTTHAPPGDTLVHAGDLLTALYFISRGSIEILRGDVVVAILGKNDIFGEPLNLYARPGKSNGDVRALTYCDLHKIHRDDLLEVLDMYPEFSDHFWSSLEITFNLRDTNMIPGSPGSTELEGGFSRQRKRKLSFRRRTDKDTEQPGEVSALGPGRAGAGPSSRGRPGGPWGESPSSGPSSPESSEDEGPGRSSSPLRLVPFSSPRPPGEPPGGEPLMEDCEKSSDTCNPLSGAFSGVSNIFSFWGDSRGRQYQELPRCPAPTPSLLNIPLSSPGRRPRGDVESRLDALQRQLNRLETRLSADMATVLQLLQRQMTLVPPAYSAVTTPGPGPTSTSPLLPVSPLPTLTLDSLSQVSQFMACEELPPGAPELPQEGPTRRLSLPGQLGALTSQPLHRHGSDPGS
Sequence of hNav1.5 (INa) (Q14524 whole entry): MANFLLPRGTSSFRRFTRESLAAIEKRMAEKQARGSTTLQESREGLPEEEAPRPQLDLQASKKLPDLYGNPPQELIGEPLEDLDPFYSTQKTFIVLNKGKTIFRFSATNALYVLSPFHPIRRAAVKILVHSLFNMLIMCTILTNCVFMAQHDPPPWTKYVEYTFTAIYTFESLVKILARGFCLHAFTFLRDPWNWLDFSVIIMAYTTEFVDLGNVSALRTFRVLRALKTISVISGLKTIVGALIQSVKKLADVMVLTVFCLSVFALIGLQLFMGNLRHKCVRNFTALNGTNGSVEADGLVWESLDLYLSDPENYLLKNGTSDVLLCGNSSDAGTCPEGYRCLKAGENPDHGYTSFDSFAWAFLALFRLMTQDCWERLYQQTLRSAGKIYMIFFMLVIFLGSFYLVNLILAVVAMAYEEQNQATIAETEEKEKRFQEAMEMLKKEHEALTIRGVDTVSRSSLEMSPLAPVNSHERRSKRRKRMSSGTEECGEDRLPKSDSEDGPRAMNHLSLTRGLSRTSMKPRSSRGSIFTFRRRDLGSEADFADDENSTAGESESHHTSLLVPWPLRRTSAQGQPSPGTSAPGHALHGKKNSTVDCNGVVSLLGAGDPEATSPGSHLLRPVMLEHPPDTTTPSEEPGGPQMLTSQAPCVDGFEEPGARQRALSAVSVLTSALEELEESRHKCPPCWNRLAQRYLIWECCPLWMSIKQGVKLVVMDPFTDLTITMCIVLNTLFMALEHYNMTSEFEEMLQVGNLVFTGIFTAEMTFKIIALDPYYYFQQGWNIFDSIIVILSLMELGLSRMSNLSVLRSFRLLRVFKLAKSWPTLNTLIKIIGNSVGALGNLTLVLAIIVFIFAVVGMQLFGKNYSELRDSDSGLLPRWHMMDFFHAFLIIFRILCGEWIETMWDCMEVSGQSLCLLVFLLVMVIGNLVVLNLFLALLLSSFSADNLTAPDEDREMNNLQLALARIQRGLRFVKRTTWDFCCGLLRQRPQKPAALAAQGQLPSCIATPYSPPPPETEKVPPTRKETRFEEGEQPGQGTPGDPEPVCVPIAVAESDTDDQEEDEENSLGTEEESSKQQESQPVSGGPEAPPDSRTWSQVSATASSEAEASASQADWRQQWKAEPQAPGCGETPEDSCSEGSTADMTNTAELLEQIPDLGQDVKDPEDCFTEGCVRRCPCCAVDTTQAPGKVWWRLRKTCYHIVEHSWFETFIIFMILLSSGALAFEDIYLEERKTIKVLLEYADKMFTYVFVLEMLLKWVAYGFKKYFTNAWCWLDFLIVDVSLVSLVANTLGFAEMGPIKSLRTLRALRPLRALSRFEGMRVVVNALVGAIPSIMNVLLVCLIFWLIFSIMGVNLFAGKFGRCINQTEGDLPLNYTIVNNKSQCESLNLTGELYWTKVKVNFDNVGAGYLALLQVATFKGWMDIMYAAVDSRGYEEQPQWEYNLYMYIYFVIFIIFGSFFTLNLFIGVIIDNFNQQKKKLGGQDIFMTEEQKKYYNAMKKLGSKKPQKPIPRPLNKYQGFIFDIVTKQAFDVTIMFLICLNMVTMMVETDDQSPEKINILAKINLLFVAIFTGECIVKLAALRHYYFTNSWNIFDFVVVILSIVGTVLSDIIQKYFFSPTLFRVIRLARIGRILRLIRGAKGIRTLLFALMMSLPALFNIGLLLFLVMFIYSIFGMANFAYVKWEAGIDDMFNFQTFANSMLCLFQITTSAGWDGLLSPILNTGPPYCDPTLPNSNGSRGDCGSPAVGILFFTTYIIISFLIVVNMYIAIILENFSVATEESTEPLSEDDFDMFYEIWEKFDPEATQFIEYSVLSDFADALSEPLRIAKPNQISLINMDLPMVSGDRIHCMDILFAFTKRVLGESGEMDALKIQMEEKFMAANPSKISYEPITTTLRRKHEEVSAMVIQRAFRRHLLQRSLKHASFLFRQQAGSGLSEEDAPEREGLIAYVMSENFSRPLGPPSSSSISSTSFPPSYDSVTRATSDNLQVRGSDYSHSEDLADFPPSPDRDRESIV
Sequence of KCNQ1/E1 (IKs) (P51787 whole entry): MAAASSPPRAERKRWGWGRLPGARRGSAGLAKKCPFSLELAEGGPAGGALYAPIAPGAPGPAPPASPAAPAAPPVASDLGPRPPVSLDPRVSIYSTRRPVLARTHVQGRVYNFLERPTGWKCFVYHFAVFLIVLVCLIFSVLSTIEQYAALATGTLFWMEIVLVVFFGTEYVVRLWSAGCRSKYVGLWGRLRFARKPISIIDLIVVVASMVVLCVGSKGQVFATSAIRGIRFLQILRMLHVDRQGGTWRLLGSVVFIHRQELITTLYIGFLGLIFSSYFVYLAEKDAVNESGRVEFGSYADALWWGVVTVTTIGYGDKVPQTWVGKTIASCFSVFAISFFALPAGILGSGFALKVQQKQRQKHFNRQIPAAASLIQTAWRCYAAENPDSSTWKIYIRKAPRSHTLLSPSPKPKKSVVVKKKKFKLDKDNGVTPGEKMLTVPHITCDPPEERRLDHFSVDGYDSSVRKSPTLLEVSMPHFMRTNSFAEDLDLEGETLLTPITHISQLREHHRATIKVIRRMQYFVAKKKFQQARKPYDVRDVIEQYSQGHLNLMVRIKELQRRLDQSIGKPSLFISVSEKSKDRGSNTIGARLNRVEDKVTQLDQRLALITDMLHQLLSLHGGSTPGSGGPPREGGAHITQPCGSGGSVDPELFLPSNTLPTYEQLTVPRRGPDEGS

Row | SMILES | % reduction at 100 μM (KCNQ1/E1 (IKs)) [%] | % reduction at 100 μM (Cav1.2/β2/α2/δ1 (ICa,L)) [%] | % reduction at 100 μM (hERG (IKr) [1]) [%] | % reduction at 100 μM (hNav1.5 (INa)) [%] | IC50 (Kir2.1 (IK1)) [µM] | IC50 (hERG (IKr) [2]) [µM]
1 | CC[C@H]1OC(=O)[C@H](C)[C@@H](O[C@H]2C[C@@](C)(OC)[C@@H](O)[C@H](C)O2)[C@H](C)[C@@H](O[C@@H]2O[C@H](C)C[C@H](N(C)C)[C@H]2O)[C@](C)(O)C[C@@H](C)CN(C)[C@H](C)[C@@H](O)[C@]1(C)O [azithromycin] | < 35 | < 35 | < 35 | < 35 |  | 
2 | CCN(CCO)CCCC(C)Nc1ccnc2cc(Cl)ccc12 (stereo not drawn) [hydroxychloroquine] |  |  |  |  | 34 ± 5 | 10 ± 0.6
